Measured values published in patent US6949575B2, “Method of inhibiting amyloid protein aggregation and imaging amyloid deposits using aminoindane derivatives” (Pfizer Inc., priority 2000, dated 2005).
Values joined by “and” are separate entries in the source; they are usually repeats but may differ in a detail not shown here. Equal entries are not always repeated.

What was measured:
Type in all cases: biochemical
[1] = target: T1, Soluble Aβ(1-40) (Homo sapiens, UniProt P05067); assay: BASST (Beta-Amyloid Self-Seeding, Thioflavin T): inhibitors of self-seeded amyloid fibril growth; details: 30 μM soluble Aβ(1-40), 37° C., 3 to 5 hours, thioflavin T fluorescence
T1 construct: Soluble Aβ(1-40)—2.2 mg/mL in deionized H2O
Experimental: • 1) Prepare reaction mixture above by mixing components and storing on ice. • 2) Pipet 14.5 μL of reaction mixture into each of 50 wells on a polypropylene U-bottom 96-well microtiter plate on ice (Costar 3794). • 3) Add 1.7 μL of diluted compound to be tested to each well in a column of eight, including solvent control. Serial 3-fold dilutions from 1 mM (100 μM final) in assay buffer-urea=7 dilutions+zero. Each 96-well plate can therefore accommodate 11 samples+1 Congo Red control (0.039-5 μM final in 2-fold steps). • 4) Seal the plate with aluminum film (Beckman 538619) and incubate for 10 minutes on ice. • 5) Raise the temperature to 37° C. and incubate for 3 to 5 hours (depending on the lot of the peptide). • 6) Remove the aluminum film and add 200 μL/well of ice cold assay buffer with urea, collecting the radiolabeled fibrils by vacuum filtration through 0.2-μm pore size GVWP filters in 96-well plates (Millipore MAGV […], Bedford, Mass.). Determine the radioactivity of the filters using standard methods well-known to those skilled in the art. BASST (Beta-Amyloid Self-Seeding, Thioflavin T) An assay for inhibitors of self-seeded amyloid fibril growth Methods: Materials: Stock Solutions: Assay Buffer-50 mM sodium phosphate, pH 7.5, 100 mM NaCl, 0.02% NaN3, 1 M urea (filter and store at 4° C.) Soluble Aβ(1-40)-2.2 mg/mL in deionized H2O (store in aliquots at -20° C., keep on ice when thawed) will self-seed after 1 week storage. Typically, the solution should be stored until no lag phase is seen in the assay. Final assay conditions: 30 μM soluble Aβ(1-40) in deionized water in assay buffer. Compound to be tested is dissolved in DMSO, typically 5 to 50 mM stock, such that the final concentration of DMSO is <1% v/v in the assay. Assay: Reaction mixture for 50 assays (on ice) comprised of 1 μL of soluble Aβ(1-40)+13.5 μL assay buffer per assay. The following are the amounts of the components of the reaction mixture that result in each of the 50 assay wells. 50 μL soluble Aβ(1-40) 675 μL assay buffer Assay Method • 1) Prepare the reaction mix above by mixing the components and storing on ice. • 2) Pipet 14.5 μL of reaction mixture into each of 50 wells of a polystyrene U-bottom 96-well microtiter plate (Coming 25881-96) on ice. • 3) Add 1.7 μL of diluted compound to be tested to each well in a column of eight, including solvent control. Serial 3-fold dilutions from 1 mM (100 μM final) in assay buffer-urea=7 dilutions+zero. Each 96-well plate can therefore accommodate 11 samples+1 Congo Red control (0.039-5 μM final in 2-fold steps). • 4) Seal the plate with aluminum film and incubate for 10 minutes on ice. • 5) Raise the temperature to 37° C. and incubate for 3 to 5 hours (depends on the lot of the peptide). • 6) Remove the aluminum film and add 250 μL/well of 5 μM thioflavin T (ThT) [T-3516, Sigma-Aldrich] in 50 mM glycine-NaOH, pH 8.5. Read fluorescence on a plate reader (ex=440 nm/20 nm; em=485 nm/20 nm) within 5 minutes. BAPA (Beta-Amyloid Peptide Aggregation)

[2] = target: T2, Aβ (1-42) (Homo sapiens, UniProt P05067); assay: Batym Assay: Aβ (1-42) aggregation, Thioflavin T fluorescence; details: Aβ1-42 final 100 μM, 37° C., 1 day, read-out: BAYTM IC50
T2 construct: Required Aβ (1-42) (California Peptide); purchased California Peptide
Experimental: Required Aβ (1-42) (California Peptide) was dried from its HFIP stock solution. The Aβ (1-42) was dissolved in DMSO and then mixed with phosphate buffered saline (PBS) (pH 7.4). The mixed Aβ (1-42) solution was filtered with a Omnipore membrane 0.2-μm syringe filter (Millipore, Bedford, Mass.). The compound to be tested in DMSO (50× concentrate) was put into each well (0.5 μL/well) of a 96-well plate. The Aβ (1-42) solution was added into each well (24.5 μL/well). The plate was centrifuged at 1,000 g for 5 minutes and incubated at 37° C. for 1 day (Aβ1-42; final concentration 100 μM).
After incubation, Thioflavin T (ThT) (30 μM) solution in glycine-NaOH buffer (pH 8.5, 50 mM) was added into each well (250 μL/well), fluorescence was measured (ex=440/20 nm; em=485/20 nm) using a fluorescence plate reader. The inhibitory activity was calculated as the reduction of fluorescence with the following formula: Inhibition (%)={(F(Aβ)−F(Aβ+compound)}/{F(Aβ)−[…]}×100
The IC50s were calculated by a curve fitting program using the following equation. The data were obtained from two different experiments in triplicate. Inhibition (x)=100−100/{1+(x/IC50)^n}. • x=concentration of tested compound (M). • IC50=(M). • n=Hill coefficient.

[3] = target: T3, Soluble Aβ(1-40) peptide (Homo sapiens, UniProt P05067); assay: BASSR (Beta-Amyloid Self-Seeding Radioassay): inhibitors of self-seeded amyloid fibril growth; details: 30 μM soluble Aβ(1-40) + 125I-labeled Aβ(1-40), 37° C., 3 to 5 hours, filtration; replicate values
T3 construct: Soluble Aβ(1-40) peptide; purchased Bachem, Torrance, Calif
Experimental: BASSR (Beta-Amyloid Self-Seeding Radioassay)
An assay for inhibitors of self-seeded amyloid fibril growth
Assay Buffer—[…] sodium phosphate, pH 7.5, 100 mM NaCl, 0.02% NaN3, 1 M urea (filter and store at 4° C.)
Soluble Aβ(1-40) peptide (Bachem, Torrance, Calif.)—2.2 mg/mL in deionized H2O (stored in aliquots at −20° C., keep on ice when thawed) will self-seed after 1 week storage. Typically, the solution should be stored until no lag phase is seen in the assay.
^125I-labeled Aβ(1-40)—150 to 350K cpm/μL in 100% acetonitrile—0.1% trifluoroacetic acid (TFA)—1% β-mercaptoethanol (aliquots stored at −20° C.). ^125I-labeled Aβ(1-40) can be made in accordance with the procedure set forth by H. Levine, III in Neurobiol. Aging, 16:755 (1995), which is hereby incorporated by reference, or this reagent may be purchased from Amersham, Arlington Heights, Ill. Final assay conditions: 30 μM soluble Aβ(1-40) in deionized water in assay buffer+20 to 50K cpm ^125I-labeled Aβ(1-40) per assay. Compound to be tested is dissolved in dimethylsulfoxide (DMSO), typically 5 to 50 mM stock, such that the final concentration of DMSO is <1% v/v in the assay. Assay: Reaction mixture for 50 assays (on ice) is comprised of 0.1 to 0.2 μL of ^125I-labeled A^125I-labeled Aβ(1-40)+1 μL of soluble Aβ(1-40)+13.5 μL assay buffer per assay. The following are the amounts of the components of the reaction mixture sufficient for 50 assay wells.
• 1) Prepare reaction mixture above by mixing components and storing on ice. • 2) Pipet 14.5 μL of reaction mixture into each of 50 wells on a polypropylene U-bottom 96-well microtiter plate on ice (Costar 3794). • 3) Add 1.7 μL of diluted compound to be tested to each well in a column of eight, including solvent control. Serial 3-fold dilutions from 1 mM (100 μM final) in assay buffer-urea=7 dilutions+zero. Each 96-well plate can therefore accommodate 11 samples+1 Congo Red control (0.039-5 μM final in 2-fold steps). • 4) Seal the plate with aluminum film (Beckman 538619) and incubate for 10 minutes on ice. • 5) Raise the temperature to 37° C. and incubate for 3 to 5 hours (depending on the lot of the peptide). • 6) Remove the aluminum film and add 200 μL/well of ice cold assay buffer with urea, collecting the radiolabeled fibrils by vacuum filtration through 0.2-μm pore size GVWP filters in 96-well plates (Millipore MAGV N22, Bedford, Mass.). Determine the radioactivity of the filters using standard methods well-known to those skilled in the art. BASST (Beta-Amyloid Self-Seeding, Thioflavin T)

[4] = target: T4, Aβ (1-40) peptide (Homo sapiens, UniProt P05067); assay: BAPA (Beta-Amyloid Peptide Aggregation, pH 6.0), filtration endpoint; details: Aβ(1-40) 33 μM, pH 6.0, 2 to 4 hours, room temperature
T4 construct: Aβ (1-40) peptide in 20% HFIP
Experimental: • 1) Prepare the reaction mix above by mixing the components and storing on ice. • 2) Pipet 14.5 μL of reaction mixture into each of 50 wells of a polystyrene U-bottom 96-well microtiter plate (Coming 25881-96) on ice. • 3) Add 1.7 μL of diluted compound to be tested to each well in a column of eight, including solvent control. Serial 3-fold dilutions from 1 mM (100 μM final) in assay buffer-urea=7 dilutions+zero. Each 96-well plate can therefore accommodate 11 samples+1 Congo Red control (0.039-5 μM final in 2-fold steps). • 4) Seal the plate with aluminum film and incubate for 10 minutes on ice. • 5) Raise the temperature to 37° C. and incubate for 3 to 5 hours (depends on the lot of the peptide). • 6) Remove the aluminum film and add 250 μL/well of 5 μM thioflavin T (ThT) [T-3516, Sigma-Aldrich] in 50 mM glycine-NaOH, pH 8.5. Read fluorescence on a plate reader (ex=440 nm/20 nm; em=485 nm/20 nm) within 5 minutes. BAPA (Beta-Amyloid Peptide Aggregation) This assay is used to provide a measure of inhibition by a compound against the aggregation behavior of the β-amyloid peptide. The purpose of this assay is to provide a higher volume method of assaying the amount of β-amyloid aggregation using an endpoint assay based on filtration. In this assay, hexafluoroisopropanol (HFIP) is used to break down the initial amyloid peptide to a monomer state and use a concentration of 33 μM which is high enough so that aggregation will occur at pH 6.0 in several hours. Methods: Beta-Amyloid Peptide Aggregation, pH 6.0 (BAPA) In a 96-well plate (Costar 3794), we add 25 μL 50 mM phosphate buffer, pH 6.0, 10 μL 0.5 mg/mL Aβ (1-40) peptide in 20% HFIP+0.1 μL/assay radioiodinated ^125I Aβ (1-40) [^125I Aβ(1-40)], and 1 μL of the compound to be tested starting at 50 mM with a concentration of DMSO<1%. Then, we incubate for 2 to 4 hours at room temperature. We stop the reaction with 200 μL of 50 mM phosphate buffer, pH 6.0, and filter it through a 0.2 μm 96-well filter plate (Millipore MAGU […]). We wash the filter plate with 100 μL of the same phosphate buffer. Aggregation was detected on a Microbeta counter after impregnating the filters with Meltilex (1450-441) and is corrected for background.

T4 sequence (P05067 672-711 limits assumed): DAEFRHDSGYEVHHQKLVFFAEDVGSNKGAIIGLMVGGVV
T1 sequence (P05067 672-711 limits assumed): as above
T2 sequence (P05067 672-713 limits assumed): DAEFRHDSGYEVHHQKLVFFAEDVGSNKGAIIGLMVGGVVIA
T3 sequence (P05067 672-711 limits assumed): as the sequence (P05067 672-711 limits assumed) above

IC50 [1] [µM]	IC50 [2]	IC50 [3] [µM]	IC50 [4] [µM]	Structure (SMILES)
40	> 100 µM	> 100		O=C(O)c1ccccc1Nc1ccc2c(c1)CC(NCc1ccc(Cl)c(Cl)c1)C2 (centres unmarked) [Example 3, 2-[2-(3,4-Dichlorobenzylamino)-indane-5-ylamino]-benzoic acid]
1.1	16 µM		28	O=C(O)c1cc([N+](=O)[O-])ccc1Nc1ccc2c(c1)CC(NCc1ccc(Cl)c(Cl)c1)C2 (centres unmarked) [Example 4, 2-[2-(3,4-Dichlorobenzylamino)-indan-5-ylamine]-5-nitro-benzoic Acid]
0.25			5	O=C(O)c1cc([N+](=O)[O-])ccc1NC1Cc2ccc(Nc3ccc(Cl)c(Cl)c3)cc2C1 (centres unmarked) [Example 9, 2-[5-(3,4-Dichlorophenylamino)-indan-2-ylamino]-5-nitro-benzoic acid]
1	7 µM and 12 µM		7	O=C(O)c1cc([N+](=O)[O-])ccc1Nc1ccc2c(c1)CC(N(Cc1ccc(F)cc1)Cc1ccc(F)cc1)C2 (centres unmarked) [Example 11, 2-{2-[bis-(4-Fluorobenzyl)amino]indan-5-ylamino}-5-nitro-benzoic acid]
